Measured values taken from ChEMBL document CHEMBL1133461, “ElogPoct: a tool for lipophilicity determination in drug discovery” (J Med Chem, 2000).

Experiments:
[1] = Partition coefficient (logP) (HPLC); conditions: octanol/water
[2] = Partition coefficient (logP); conditions: octanol/water
[3] = HPLC capacity factor (k); type: ADME

SMILES | Log k'w | logP [1] | logP [2] | Log K'w [3]
c1ccc2ccccc2c1 | 3.06 | 3.51 | – | –
Oc1cc(Cl)cc(Cl)c1 | 3.4 | 3.88 | 3.68 | –
CSc1ncnc2c1ncn2[C@@H]1O[C@H](CO)[C@@H](O)[C@H]1O | 0.19 | 0.34 | – | –
Oc1cccc(Cl)c1 | 2.49 | – | – | –
Brc1cnc2ccccc2c1 | 2.54 | 2.93 | – | –
CC(=O)Nc1ccc(O)cc1 [ACETAMINOPHEN] | – | 0.11 | 0.51 | -0.02
CC(=O)c1ccccc1 [ACETOPHENONE] | 1.31 | – | – | –
Oc1ncnc2[nH]ncc12 [ALLOPURINOL] | – | -0.85 | – | -0.89
Cc1cc(=O)n(-c2ccccc2)n1C [ANTIPYRINE] | – | – | – | 0.09
c1ccc(-c2ccc(C(c3ccccc3)n3ccnc3)cc2)cc1 (stereo unspecified) [BIFONAZOLE] | 4.37 | 4.95 | – | –
O=C1CN=C(c2ccccn2)c2cc(Br)ccc2N1 [BROMAZEPAM] | – | 1.38 | 1.65 | 1.13
Cn1c(=O)c2c(ncn2C)n(C)c1=O [CAFFEINE] | -0.31 | – | – | –
NC(=O)N1c2ccccc2C=Cc2ccccc21 [CARBAMAZEPINE] | – | 2.01 | 2.19 | 1.7
Clc1ccccc1C(c1ccccc1)(c1ccccc1)n1ccnc1 [CLOTRIMAZOLE] | 4.13 | – | – | –
C[C@@H]1C[C@H]2[C@@H]3CCC4=CC(=O)C=C[C@]4(C)[C@@]3(F)[C@@H](O)C[C@]2(C)[C@@]1(O)C(=O)CO [DEXAMETHASONE] | 2.03 | 2.37 | – | –
CC/C(=C(/CC)c1ccc(O)cc1)c1ccc(O)cc1 [DIETHYLSTILBESTROL] | 4.16 | 4.72 | – | –

SMILES | Log k'w | logP [1] | logP [2] | Log K'w [3]
C[C@]12CC[C@@H]3c4ccc(O)cc4CC[C@H]3[C@@H]1CC[C@@H]2O [ESTRADIOL] | 3.34 | 3.82 | – | –
COC1=CC(=O)C[C@@H](C)[C@]12Oc1c(Cl)c(OC)cc(OC)c1C2=O [GRISEOFULVIN] | 2.21 | 2.57 | – | –
CC(=O)OCC(=O)[C@@]1(O)CC[C@H]2[C@@H]3CCC4=CC(=O)CC[C@]4(C)[C@H]3[C@@H](O)C[C@@]21C [HYDROCORTISONE ACETATE] | 1.93 | 2.26 | 2.19 | –
C[C@]12CCC(=O)C=C1CC[C@@H]1[C@@H]2[C@@H](O)C[C@@]2(C)[C@H]1CC[C@]2(O)C(=O)CO [HYDROCORTISONE] | 1.43 | – | – | –
O=C1Nc2ccc(Cl)cc2C(c2ccccc2Cl)=NC1O (stereo unspecified) [LORAZEPAM] | – | 2.74 | – | 2.36
CN1C(=O)C(O)N=C(c2ccccc2Cl)c2cc(Cl)ccc21 (stereo unspecified) [LORMETAZEPAM] | 2.4 | 2.78 | 2.72 | –
Cc1ncc([N+](=O)[O-])n1CCO [METRONIDAZOLE] | – | -0.22 | – | -0.32
O=[N+]([O-])c1ccc(/C=N/O)o1 [NIFUROXIME] | 1.11 | 1.36 | 1.28 | –
NC(=O)N/N=C/c1ccc([N+](=O)[O-])o1 [NITROFURAZONE] | 0.1 | 0.24 | – | –
CC(=O)CCCCn1c(=O)c2c(ncn2C)n(C)c1=O [PENTOXIFYLLINE] | 0.16 | 0.31 | 0.29 | –
C[C@]12C=CC(=O)C=C1CC[C@@H]1[C@@H]2[C@@H](O)C[C@@]2(C)[C@H]1CC[C@]2(O)C(=O)CO [PREDNISOLONE] | 1.54 | 1.83 | – | –
C[C@]12C=CC(=O)C=C1CC[C@@H]1[C@@H]2C(=O)C[C@@]2(C)[C@H]1CC[C@]2(O)C(=O)CO [PREDNISONE] | 1.21 | 1.47 | – | –
c1ccc2ncccc2c1 [QUINOLINE] | – | 1.85 | – | –
C[C@]12CC[C@H]3[C@@H](CCC4=CC(=O)CC[C@@]43C)[C@@H]1CC[C@@H]2O [TESTOSTERONE] | 2.74 | – | – | –
CS(=O)(=O)c1ccc([C@@H](O)[C@@H](CO)NC(=O)C(Cl)Cl)cc1 [THIAMPHENICOL] | -0.24 | -0.13 | -0.27 | –
Cc1cccc(N(C)C(=S)Oc2ccc3ccccc3c2)c1 [TOLNAFTATE] | 4.55 | 5.15 | 5.4 | –
